Molecules are shown by their SMILES.

human SGLT1, sequence (P13866 whole entry): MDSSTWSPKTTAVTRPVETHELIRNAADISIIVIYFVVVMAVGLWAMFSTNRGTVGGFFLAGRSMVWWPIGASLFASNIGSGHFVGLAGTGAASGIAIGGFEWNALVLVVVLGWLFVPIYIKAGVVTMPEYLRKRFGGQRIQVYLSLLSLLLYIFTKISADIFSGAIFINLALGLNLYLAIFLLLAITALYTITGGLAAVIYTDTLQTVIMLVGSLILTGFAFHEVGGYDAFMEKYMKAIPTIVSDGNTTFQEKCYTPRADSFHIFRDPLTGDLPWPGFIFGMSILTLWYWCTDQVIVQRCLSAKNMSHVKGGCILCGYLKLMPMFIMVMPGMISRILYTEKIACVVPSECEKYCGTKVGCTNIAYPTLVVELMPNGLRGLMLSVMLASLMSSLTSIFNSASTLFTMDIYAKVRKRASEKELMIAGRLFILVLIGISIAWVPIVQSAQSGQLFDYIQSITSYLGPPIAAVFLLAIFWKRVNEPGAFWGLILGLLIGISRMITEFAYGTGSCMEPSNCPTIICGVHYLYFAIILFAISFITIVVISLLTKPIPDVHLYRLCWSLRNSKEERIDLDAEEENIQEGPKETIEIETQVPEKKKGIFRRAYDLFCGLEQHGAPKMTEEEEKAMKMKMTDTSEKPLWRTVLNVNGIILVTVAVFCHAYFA

For the first test, the target named is human SGLT1 (Homo sapiens (Human), UniProt P13866). As to the kind of experiment: SGLT1 inhibitory activity: 14C-AMG uptake into CHO-K1 cell line stably expressing human SGLT1. It is filed as cell-based. The following applies: 14C-AMG uptake, CHO-K1 cells expressing human SGLT1. The method, then:
SGLT1 inhibitory activity of a test compound (IC50 value) was calculated based on an amount of intake into a cell of labeled α-methyl-D-glucopyranoside (^14C-AMG) which is transported by SGLT1.
1) Construction of Human SGLT1 Expression Plasmid
A DNA fragment containing human SGLT1, wherein NheI recognition and cleavage sequence was added upstream of a Kozac consensus sequence of the vector; and a stop codon (TAG) and a SalI recognition and cleavage sequence was added just downstream of a coding region of the human SGLT1, was amplified by PCR using pCMV6-hSGLT1 (OriGene) as a template. The purified DNA fragment was cleaved by restriction enzymes NheI and SalI, and the obtained fragment was ligated into pcDNA3.1 (+) which was cleaved by NheI and XhoI to construct human SGLT1 expression plasmid.
2) Establishment of Stable Cell Lines Expressing Human SGLT1
A human SGLT1 expression plasmid pcDNA-hSGLT1 was transfected into CHO-K1 cells by Lipofectamine-2000 (Invitrogen). The cells were cultured in the presence of G418 (Nakalai tesque) and drug-resistant cells were selected. A cell line having the highest S/B ratio of an amount of ^14C-AMG uptake per cell treated by solvent to an amount of ^14C-AMG uptake per cell treated by phlorizin (SGLT inhibitor) was selected from the drug-resistant cells as a stable cell lines expressing human SGLT1.
3) Evaluation of SGLT1 Inhibitory Activity
The stable cell line expressing human SGLT1 was seeded at 5×10^4 cells/well on BioCoat™ Poly-D-Lysine 96 well plate with Lid (Becton Dickinson and Company) and cultured at 37° C. under 5% CO2 overnight. The medium was replaced with 100 μL/well of a Na (−) buffer (140 mM choline chloride, 2 mM KCl, 1 mM MgCl2, 1 mM CaCl2, 10 mM HEPES, 5 mM Tris, pH7.4) followed by incubation for 20 minutes at 37° C. under 5% CO2. After removing the Na (−) buffer, a test compound solution which was prepared from Na (+) buffer (140 mM NaCl, 2 mM KCl, 1 mM MgCl2, 1 mM CaCl2, 10 mM HEPES, 5 mM Tris, pH7.4) containing BSA was added thereto at 40 μL/well. In addition, Na (+) buffer containing 8 kBq of ^14C-AMG and 2 mM AMG was added thereto at 40 μL/well, and was mixed well. Na (−) buffer containing BSA was added to a blank well at 40 μL/well and additionally adding a Na (+) buffer containing 8 kBq of ^14C-AMG and 2 mM AMG, and was mixed well. Cells were incubated for 1 hour at 37° C. under 5% CO2. After the reaction, the cells were washed twice with 100 μL/well of iced wash buffer (100 mM AMG, 140 mM choline chloride, 2 mM KCl, 1 mM MgCl2, 1 mM CaCl2, 10 mM HEPES, 5 mM Tris, pH7.4), then lysed in 50 μL/well of a 0.2N aqueous solution of NaOH. The cell lysate was transferred to OptiPlate96 (Perkin-Elmer) and 100 μL/well of MicroScint-40 (Perkin-Elmer) was dispensed. The radioactivity was counted by TOPCOUNT NXT (Perkin-Elmer).
A data was obtained by deducting the average value (CPM) of blank wells from the average value (CPM) of each treated well. The inhibition ratio (%) was calculated by the following formula: inhibition rate (%)=[(A−B)/A]×100, where A is a data of the solvent control, and B is a data of a test compound.
As to `C[C@H]1C(=O)NC[C@@H]1C(=O)Nc1cc(-c2cccc(OC(F)(F)F)c2)n(-c2ccccc2)n1` [Example 1, (3R,4R)-4-methyl-5-oxopyrrolidine-3-carboxylic acid[1-phenyl-5-(3-trifluoromethoxyphenyl)-1H-pyrazol-3-yl]amide], the IC50 (usually the point on the concentration scale where inhibition reaches its midpoint) came to 4 nM. Turning to `C[C@H]1C(=O)NC[C@@H]1C(=O)Nc1cc(-c2cccc(OC(F)(F)F)c2)n(-c2ccc(F)cc2)n1` [Example 2, (3R,4R)-4-methyl-5-oxopyrrolidine-3-carboxylic acid[1-(4-fluorophenyl)-5-(3-(trifluoromethoxy)phenyl)-1H-pyrazol-3-yl]amide], it took 3.4 nM to reach half-maximal inhibition (IC50). On the same count and under the same terms, in the case of `C[C@H]1C(=O)NC[C@@H]1C(=O)Nc1cc(-c2cccc(OC(F)(F)F)c2)n(-c2cccc(F)c2)n1` [Example 3, (3R,4R)-4-methyl-5-oxopyrrolidine-3-carboxylic acid[1-(3-fluorophenyl)-5-(3-(trifluoromethoxy)phenyl)-1H-pyrazol-3-yl]amide] it was 6.2 nM; in that of `O=C1C[C@@H](C(=O)Nc2cc(-c3cccc(OC(F)(F)F)c3)n(-c3ccccc3)n2)CN1` [Example 4, (R)-5-oxopyrrolidine-3-carboxylic acid[1-phenyl-5-(3-trifluoromethoxyphenyl)-1H-pyrazol-3-yl]amide], 8.6 nM. Still for that read-out and setting: the figure for `CCCc1cccc(-c2cc(NC(=O)[C@H]3CNC(=O)N3C)nn2-c2ccccc2)c1` [Example 6, (R)-3-methyl-2-oxoimidazolidine-4-carboxylic acid [1-phenyl-5-(3-propylphenyl)-1H-pyrazol-3-yl]amide] is 7.2 nM. Molecule `CCCc1cccc(-c2cc(NC(=O)[C@H]3CNC(=O)N3)nn2-c2ccccc2)c1` [Example 8, (R)-2-oxoimidazolidine-4-carboxylic acid[1-phenyl-5-(3-propylphenyl)-1H-pyrazol-3-yl]amide] came in with an IC50 of 20 nM.

On to `CCCc1cccc(-c2cc(NC(=O)[C@H]3CNC(=O)C3)nn2-c2ccccc2)c1` [Example 22], for which the IC50 was 4.7 nM. For the molecule `CCCc1cccc(-c2cc(NC(=O)[C@@H]3CNC(=O)C3)nn2-c2ccccc2)c1` [Example 23], the IC50 came out at 7.4 nM. Turning to `CC(C)(C)c1cccc(-c2cc(NC(=O)[C@H]3CNC(=O)C3)nn2-c2ccccc2)c1` [Example 25], the IC50 was determined as 1.8 nM. Still for that read-out and setting: the figure for `CC(C)(C)c1cccc(-c2cc(NC(=O)[C@@H]3CNC(=O)C3)nn2-c2ccccc2)c1` [Example 26] is 3.5 nM.

In the case of `O=C1C[C@@H](C(=O)Nc2cc(-c3cccc(C(F)(F)F)c3)n(-c3ccccc3)n2)CN1` [Example 27], the midpoint of inhibition, the IC50, lay at 23 nM. Still for that read-out and setting: the figure for `O=C1C[C@H](C(=O)Nc2cc(-c3cccc(C(F)(F)F)c3)n(-c3ccccc3)n2)CN1` [Example 28] is 52 nM. In the case of `O=C1C[C@H](C(=O)Nc2cc(-c3cccc(OC(F)(F)F)c3)n(-c3ccccc3)n2)CN1` [Example 29], the IC50 came out at 24 nM. As for `CCOc1cccc(-c2cc(NC(=O)[C@H]3CNC(=O)C3)nn2-c2ccccc2)c1` [Example 30], the midpoint of inhibition, the IC50, lay at 95 nM. The same measure, in the same setting: the figure for `CCOc1cccc(-c2cc(NC(=O)[C@@H]3CNC(=O)C3)nn2-c2ccccc2)c1` [Example 31] is 270 nM; for `CCCc1cccc(-c2cc(NC(=O)[C@H]3CNC(=O)C3)nn2-c2ccc(F)cc2)c1` [Example 34] it is 6.8 nM. Same read-out and setting: in the case of `CCCc1cccc(-c2cc(NC(=O)[C@@H]3CNC(=O)C3)nn2-c2ccc(F)cc2)c1` [Example 35] it was 15 nM; in that of `CCCc1cccc(-c2cc(NC(=O)[C@H]3CNC(=O)C3)nn2-c2ccc(Cl)cc2)c1` [Example 36], 9.4 nM.

Consider `CCCc1cccc(-c2cc(NC(=O)[C@@H]3CNC(=O)C3)nn2-c2ccc(Cl)cc2)c1` [Example 37], for which the midpoint of inhibition, the IC50, lay at 16 nM. For the molecule `O=C1C[C@@H](C(=O)Nc2cc(-c3cccc(Cl)c3)n(-c3ccccc3)n2)CN1` [Example 38], half-maximal inhibition (IC50) was put at 130 nM.

The test is the same for the next values; noted with them: 14C-AMG uptake, CHO-K1 cells stably expressing human SGLT1.
In the case of `O=C1CCC(C(=O)Nc2cc(-c3cccc(COCC(F)(F)F)c3)n(-c3ccccc3)n2)CN1` (single isomer, unassigned) [Example 560], half-maximal inhibition (IC50) was put at 24 nM.

For the origin of these results see US8846746B2, “Pyrazole compound and pharmaceutical use thereof” (Japan Tobacco Inc., priority 2011, dated 2014).
